Patent US10919785B2, “Hydraulic conveyor of floating objects provided with a device for sanitising conveying composition, plant provided with such a conveyor and sanitising method” (MAF AGROBOTIC, priority 2016, dated 2021)

Assay: Example 5: pilot device, degradation of four pesticides (FIG. 6)
Assay type: physicochemical
Details: initial boscalid 250, thiacloprid 100, fludioxonil 100, pyraclostrobin 125 μg/l; initial hydrogen peroxide 2 μg/l; 6 m^3/h, five lamps on
From the text: A semi-industrial pilot device in accordance with one aspect of the invention comprises a tank for recirculating water to be treated of a volume of 1000 l, a circulation pump ensuring a circulation flow of the water to be treated in a sanitising device with a flow rate between 4 m^3 to 8 m^3/h. The sanitising device comprises a photolysis chamber comprising an inlet for water from the recirculation tank and an outlet for sanitised water directed to the recirculation tank. The photolysis chamber is formed of a rigid tubular envelope, of which the external wall is opaque to light and forming an inner space suitable for receiving five fluorescent tubes with a longitudinal axis extending in parallel with the longitudinal axis of the rigid tubular envelope. The inner volume of the decontamination reactor is in the order of […].
The five fluorescent tubes are tubes of 200 W emitting light at a wavelength of 254 nm and arranged longitudinally in the tubular envelope at the five points of a regular pentagon and in contact with the water to be treated flowing in the photolysis chamber. In this configuration of the sanitising device, the water to be sanitised flowing in contact with the five fluorescent tubes is subjected to substantially homogeneous illumination in the order of 500 mJ/cm^2 for a circulation flow rate of water to be sanitised in the order of 6 m^3/h. The semi-industrial pilot device also comprises a tank for storing an aqueous solution of hydrogen peroxide (H2O2) provided with a pump for distributing said solution in the circulation flow of water to be sanitised issuing into the circuit of water to be sanitised upstream of and in proximity to the photolysis chamber. The concentration of the hydrogen peroxide in the aqueous solution of hydrogen peroxide is between 2 m g/l and 13 mg/l. The set-point flow rate of the pump for distributing solution of H2O2 is kept at 4 l/h.
A study was carried out in a semi-industrial pilot device as described above on the degradation of boscalid, thiacloprid, fludioxonil and pyraclostrobin. […]

| SMILES | degraded within 1 hour |
| --- | --- |
| N#Cc1c[nH]cc1-c1cccc2c1OC(F)(F)O2 [fludioxonil] | 90% |
| N#C/N=C1\SCCN1Cc1ccc(Cl)nc1 [thiacloprid] | more than 95% |
| COC(=O)N(OC)c1ccccc1COc1ccn(-c2ccc(Cl)cc2)n1 [pyraclostrobin] | 85% |
